Tests used:
[1] = system: ARP-1 multiple myeloma cell line; test: MTT cell viability assay, ARP-1 cells; assay type: cell-based, human; details: 500 μg/ml (FIG. 1 legend), 72 hours
Text: ARK, ARP-1, and CAG cells are B lymphoid cell lines established at the Arkansas Cancer Research Center from bone marrow aspirates of multiple myeloma patients (Ridley, Xiao et al. 1993). U266 is a multiple myeloma cell line that was obtained from the American Type Culture Collection (ATCC, Manassas, Va.). ARH-77 cells (ATCC, Manassas, Va.) were established from the peripheral blood of a patient with plasma cell leukemia (Burk, Drewinko et al. 1978). Peripheral blood mononuclear cells (PBMCs) were collected from healthy donors by Ficol-Hypaque separation of whole blood and were mitogen activated for 3 days with 2.5 μg/ml PHA (Sigma, St Louis, Mo.) prior to neoglycan treatment. The cell lines and peripheral blood mononuclear cells were grown in RPMI 1640 supplemented with 10% fetal bovine serum, 2 mM L-glutamine, 1 00 U/ml penicillin and 100 μg/ml streptomycin sulfate. […]
Cells were plated in the appropriate media on 96-well plates in a 100 μl total volume. […] Cell viability was determined based mitochondrial conversion of 3[4,5-Dimethylthiazol-2-yl]-2,5-diphenyltetrazolium bromide (MTT, Sigma, St Louis, Mo.) to formazan. […] The plates were gently agitated until the color reaction was uniform and the OD540 was determined using a microplate reader. […]

ARP-1 cells = test: Apoptosis by Annexin V-FITC staining and PI exclusion, ARP-1; assay type: cell-based, human; details: discussion summary of Annexin V and TUNEL results
Method: (§1) ARP-1 cells and MDA-MB-231 cells were treated with media only, 32 μg/ml GAG chains and 32 μg/ml neoglycans. The ARP-1 cells were harvested following a 48 hour incubation period and the MDA-MB-231 cells were harvested after a 96 hour incubation period. The induction of apoptosis was determined by staining with fluorescein isothiocyanated-labeled Annexin V (Annexin V-FITC, CALTAG Laboratories, Burlingame, Calif.) following the manufacturer's instructions. Just prior to analysis, 0.5 mg/ml propidium iodide (PI, Sigma, St Louis, Mo.) in PBS, pH. 7.4 was added. Flow cytometry was performed with a Beckman Dickenson (Mountain View, Calif.) FACScan using Cellquest 1.2 software. Annexin V-FITC positive, PI negative cells were considered apoptotic.
(§2) Annexin-V binds to phosphatidylserine which is on the inner cytoplasmic membrane of healthy cells and on the outer cytoplasmic membrane of apoptotic cells .

MDA-MB-231 cells = test: Apoptosis by Annexin V-FITC staining and PI exclusion, MDA-MB-231; assay type: cell-based, human; details: discussion summary of Annexin V and TUNEL results
Method: as §1, §2

[2] = system: MDA-MB-231 breast cancer tumors; test: Treatment of established MDA-MB-231 tumors in nude mice; assay type: in vivo; details: single 1.6 mg dose injected into the tumor followed by electroporation
Method: BALB/c nu/nu mice were anesthetized by intraperitoneal administration of a mixture of ketamine (42.8 mg/ml), xylazine (8.6 mg/ml), and acepromazine (1.4 mg/ml) at a dose of 1.8-2.0 ml/kg. Human breast cancer tumors were established following subcutaneous injection of 2×10^6 MDA-MB-231 cells in PBS. Two tumors were established on each mouse. Tumors were injected with a single 1.6 mg dose of chondroitin sulfate or chondroitin sulfate neoglycan in a 50 μl total volume. Immediately following injection, a caliper electrode was positioned on t wo sides of the tumor with contact on the skin. An electrical pulse was applied to the tumor through the electrodes with a BTS EC830 power supply (Genetronics, Inc., San Diego, Calif.). The tumors were measured with calipers and tumor volumes calculated according to the equation: V=(L×W2)×0.5. The results reflect two separate experiments in which one tumor was treated with chondroitin sulfate and the second tumor on the same animal was treated with neoCS. Both experiments included 7 tumors per treatment group.
Therefore, chondroitin sulfate neoglycan was used for evaluation of in vivo neoglycan activity. […] Two tumors per animal developed and were measured just prior to treatment. […] The size of each tumor was determined 48 hours later and at several subsequent time points.

[3] = system: multiple myeloma cell line; test: Viability of a multiple myeloma cell line treated with nPG, EDAC modified GAG chains or native GAG chains; assay type: cell-based; details: data not shown
Text: Synthetic proteoglycans termed neoproteoglycans (nPG), were produced by EDAC conjugation of the GAG chains heparin or chondroitin sulfate and a protein scaffold. Treatment of a multiple myeloma cell line with either nPG preparation or controls produced by EDAC modification of GAG chains alone reduced cell viability (data not shown). […] Therefore, neoglycans (neoglycans) consisting of EDAC modified heparin (neoheparin) or chondroitin sulfate (neoCS, neoCS) were produced and evaluated for potential anticancer activities.

Substance: chondroitin sulfate
- effect of native GAG chains on cell proliferation [1]: no affect
- induction of apoptosis in ARP-1 cell line (FIG. 2) (ARP-1 cells): do not induce apoptosis
- induction of apoptosis in MDA-MB-231 cell line (FIG. 2) (MDA-MB-231 cells): do not induce apoptosis
- effect on established MDA-MB-231 tumors / tumor burden [2]: does not reduce the tumor burden
- effect on multiple myeloma cell viability / growth [3]: no growth reducing affect

Substance: heparin
- effect of native GAG chains on cell proliferation [1]: slightly enhances cell proliferation
- induction of apoptosis in ARP-1 cell line (FIG. 2) (ARP-1 cells): do not induce apoptosis
- induction of apoptosis in MDA-MB-231 cell line (FIG. 2) (MDA-MB-231 cells): do not induce apoptosis
- effect on multiple myeloma cell viability / growth [3]: no growth reducing affect

— patent US20020013264A1, “Neoglycan anticancer agents and uses thereof” (priority 1999, published 2002)
